Data published in patent publication US20230040770A1, “HETEROCYCLIC COMPOUND AND USE THEREOF” (TAKEDA PHARMACEUTICAL COMPANY LIMITED, priority 2019, published 2023).

What follows are compounds tested against T1, human orexin type 2 receptor (Homo sapiens, UniProt O43614) (assay: Measurement of orexin type 2 receptor agonist activity (calcium indicator fluorescence, CHO cells forcibly expressing human OX2 receptor)). Details: compound at 3 μM; 0% = DMSO, 100% = orexin A (human) 10 nM.
T1 construct: expressed in transfected cells
T1 sequence (O43614 1-444): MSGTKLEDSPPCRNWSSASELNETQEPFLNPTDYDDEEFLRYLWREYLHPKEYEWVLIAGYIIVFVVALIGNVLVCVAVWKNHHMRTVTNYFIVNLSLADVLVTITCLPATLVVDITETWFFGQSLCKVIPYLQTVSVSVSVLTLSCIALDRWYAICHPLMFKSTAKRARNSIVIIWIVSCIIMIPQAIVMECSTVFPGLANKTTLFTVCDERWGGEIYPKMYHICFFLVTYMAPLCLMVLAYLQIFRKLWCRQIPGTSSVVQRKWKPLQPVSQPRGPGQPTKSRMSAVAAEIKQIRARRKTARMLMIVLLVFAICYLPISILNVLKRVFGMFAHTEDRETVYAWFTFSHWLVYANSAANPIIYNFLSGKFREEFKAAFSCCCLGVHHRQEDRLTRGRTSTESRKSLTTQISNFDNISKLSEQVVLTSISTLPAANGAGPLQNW
Assay type: cell-based
Method in brief: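 Agonist response normalised between vehicle (0%) and orexin A at 10 nM final (100%), from kinetic Fluo-4 calcium signals recorded for about 2 min after compound addition. Cells: stable human OX2R CHO clone, dye-loaded 30 min at 37 °C plus 30 min at room temperature.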

Structure (SMILES)	OX2R agonist activity (3 μM, %)
O=C(C1CC1)N1C[C@H](F)[C@H](NS(=O)(=O)C2CC2)[C@@H]1Cc1cccc(-c2cccc(F)c2)c1F [Example 372, N-{(2S,3R,4S)-1-(cyclopropanecarbonyl)-2-[(2,3′-difluoro[1,1′-biphenyl]-3-yl)methyl]-4-fluoropyrrolidin-3-yl}cycloproapnesulfonamide]	89%
O=C(C1CC1)N1C[C@H](F)[C@H](NS(=O)(=O)C2CC2)[C@@H]1Cc1cccc(-c2cc(F)cc(F)c2)c1F [Example 373, N-{(2S,3R,4S)-1-(cyclopropanecarbonyl)-4-fluoro-2-[(2,3′,5′-trifluoro[1,1′-biphenyl]-3-yl)methyl]pyrrolidin-3-yl}cyclopropanesulfonamide]	88%
CS(=O)(=O)N[C@H]1[C@@H](F)CN(C(=O)C23CC(C2)C3)[C@H]1Cc1cccc(-c2cc(F)cc(F)c2)c1F [Example 374, N-{(2S,3R,4S)-1-(bicyclo[1.1.1]pentane-1-carbonyl)-4-fluoro-2-[(2,3′,5′-trifluoro[1,1′-biphenyl]-3-yl)methyl]pyrrolidin-3-yl}methanesulfonamide]	93%
CCS(=O)(=O)N[C@@H]1[C@H](Cc2cccc(-c3cc(F)ccc3F)c2F)N(C(=O)[C@H]2C[C@H](F)C2)CC1(F)F [Example 376, N-{(2S,3R)-4,4-difluoro-1-((1r,3S)-3-fluorocyclobutane-1-carbonyl)-2-[(2,2′,5′-trifluoro[1,1′-biphenyl]-3-yl)methyl]pyrrolidin-3-yl}ethanesulfonamide]	99%
O=C(C1CC1)N1C[C@H](F)[C@H](NS(=O)(=O)C2CC2)[C@@H]1Cc1cccc(-c2cccc(F)c2F)c1F [Example 377, N-{(2S,3R,4S)-1-(cyclopropanecarbonyl)-4-fluoro-2-[(2,2′,3′-trifluoro[1,1′-biphenyl]-3-yl)methyl]pyrrolidin-3-yl}cyclopropanesulfonamide]	95%
CCS(=O)(=O)N[C@@H]1[C@H](Cc2cccc(-c3ccccc3)c2F)N(C(=O)[C@H]2C[C@H](F)C2)CC1(F)F [Example 378, N-[(2S,3R)-4,4-difluoro-2-[(2-fluoro[1,1′-biphenyl]-3-yl)methyl]-1-((1r,3S)-3-fluorocyclobutane-1-carbonyl)pyrrolidin-3-yl]ethanesulfonamide]	106%
O=C(C1CC1)N1C[C@H](F)[C@H](NS(=O)(=O)C2CC2)[C@@H]1Cc1cccc(-c2cc(F)ccc2F)c1F [Example 379, N-{(2S,3R,4S)-1-(cyclopropanecarbonyl)-4-fluoro-2-[(2,2′,5′-trifluoro[1,1′-biphenyl]-3-yl)methyl]pyrrolidin-3-yl}cycloproapnesulfonamide]	93%
CCS(=O)(=O)N[C@@H]1[C@H](Cc2cccc(-c3cc(F)ccc3F)c2F)N(C(=O)[C@H]2C[C@@H](F)C2)CC1(F)F [Example 381, N-{(2S,3R)-4,4-difluoro-1-((1s,3R)-3-fluorocyclobutane-1-carbonyl)-2-[(2,2′,5′-trifluoro[1,1′-biphenyl]-3-yl)methyl]pyrrolidin-3-yl}ethanesulfonamide]	95%
CC(C)C(=O)N1C[C@H](F)[C@H](NS(=O)(=O)C2CC2)[C@@H]1Cc1cccc(-c2cccc(F)c2)c1F [Example 382, N-[(2S,3R,4S)-2-[(2,3′-difluoro[1,1′-biphenyl]-3-yl)methyl]-4-fluoro-1-(2-methylpropanoyl)pyrrolidin-3-yl]cyclopropanesulfonamide]	102%
CCS(=O)(=O)N[C@@H]1[C@H](Cc2cccc(-c3ccccc3)c2F)N(C(=O)[C@H]2C[C@@H](F)C2)CC1(F)F [Example 383, N-[(2S,3R)-4,4-difluoro-2-[(2-fluoro[1,1′-biphenyl]-3-yl)methyl]-1-((1s,3R)-3-fluorocyclobutane-1-carbonyl)pyrrolidin-3-yl]ethanesulfonamide]	94%
O=C(N1C[C@H](F)[C@H](NS(=O)(=O)C2CC2)[C@@H]1Cc1cccc(-c2cccc(F)c2)c1F)C12CC(C1)C2 [Example 384, N-{(2S,3R,4S)-1-(bicyclo[1.1.1]pentane-1-carbonyl)-2-[(2,3′-difluoro[1,1′-biphenyl]-3-yl)methyl]-4-fluoropyrrolidin-3-yl}cyclopropanesulfonamide]	98%
O=C(C1CCO1)N1C[C@H](F)[C@H](NS(=O)(=O)C2CC2)[C@@H]1Cc1cccc(-c2cccc(F)c2)c1F (stereo partly drawn) [Example 385, N-[(2S,3R,4S)-2-[(2,3′-difluoro[1,1′-biphenyl]-3-yl)methyl]-4-fluoro-1-(oxetane-2-carbonyl)pyrrolidin-3-yl]cyclopropanesulfonamide]	95%
CN(C)C(=O)N1C[C@H](F)[C@H](NS(=O)(=O)C2CC2)[C@@H]1Cc1cccc(-c2cccc(F)c2)c1F [Example 387, (2S,3R,4S)-3-[(cyclopropanesulfonyl)amino]-2-[(2,3′-difluoro[1,1′-biphenyl]-3-yl)methyl]-4-fluoro-N,N-dimethylpyrrolidine-1-carboxamide]	85%
CC(C)(O)C(=O)N1C[C@H](F)[C@H](NS(C)(=O)=O)[C@@H]1Cc1cccc(-c2cccc(Cl)c2)c1F [Example 388, N-[(2S,3R,4S)-2-[(3′-chloro-2-fluoro[1,1′-biphenyl]-3-yl)methyl]-4-fluoro-1-(2-hydroxy-2-methylpropanoyl)pyrrolidin-3-yl]methanesulfonamide]	89%
CC(C)(O)C(=O)N1C[C@H](F)[C@H](NS(C)(=O)=O)[C@@H]1Cc1cccc(-c2cccc(Cl)c2F)c1F [Example 389, N-[(2S,3R,4S)-2-[(3′-chloro-2,2′-difluoro[1,1′-biphenyl]-3-yl)methyl]-4-fluoro-1-(2-hydroxy-2-methylpropanoyl)pyrrolidin-3-yl]methanesulfonamide]	89%
CC(C)(O)C(=O)N1C[C@H](F)[C@H](NS(C)(=O)=O)[C@@H]1Cc1cccc(-c2cc(F)cc(Cl)c2)c1F [Example 391, N-[(2S,3R,4S)-2-[(3′-chloro-2,5′-difluoro[1,1′-biphenyl]-3-yl)methyl]-4-fluoro-1-(2-hydroxy-2-methylpropanoyl)pyrrolidin-3-yl]methanesulfonamide]	92%
CS(=O)(=O)N[C@@H]1[C@H](Cc2cccc(-c3cccc(F)c3)c2F)N(C(=O)C2CC(F)C2)CC1(F)F (stereo partly drawn) [Example 392, N-[(2S,3R)-2-[(2,3′-difluoro[1,1′-biphenyl]-3-yl)methyl]-4,4-difluoro-1-(3-fluorocyclobutane-1-carbonyl)pyrrolidin-3-yl]methanesulfonamide]	97%
CS(=O)(=O)N[C@@H]1[C@H](Cc2cccc(-c3cccc(F)c3)c2F)N(C(=O)C2CC(F)C2)CC1(F)F (stereo partly drawn) [Example 393, N-[(2S,3R)-2-[(2,3′-difluoro[1,1′-biphenyl]-3-yl)methyl]-4,4-difluoro-1-(3-fluorocyclobutane-1-carbonyl)pyrrolidin-3-yl]methanesulfonamide]	94%
CCS(=O)(=O)N[C@@H]1[C@H](Cc2cccc(-c3cc(C)cc(F)c3)c2F)N(C(=O)C2(O)CCC2)CC1(F)F [Example 394, N-[(2S,3R)-2-[(2,3′-difluoro-5′-methyl[1,1′-biphenyl]-3-yl)methyl]-4,4-difluoro-1-(1-hydroxycyclobutane-1-carbonyl)pyrrolidin-3-yl]ethanesulfonamide]	86%
